Several values for one entry are separate records, joined by “and”; a condition that tells them apart may be missing. Equal entries are not always repeated.
What was measured:
hSUMO-1 18-97 = target: T1, hSUMO-1 18-97 (Homo sapiens, UniProt P63165); test: Fluorescence anisotropy competition assay, FITC-peg-SIM tracer / SUMO; assay type: binding; details: for inhibitory potency in competition FA: competition FA vs SIM tracer/SUMO, relative to SIM2705–2717; for IC50: competition FA, 50 mM Tris, 150 mM NaCl, 25 nM tracer, 100 nM SUMO, read after 45 min, triplicate
T1 construct: 18-97; His-TEV (N, cleaved yes); made in house
T1 sequence (P63165 18-97): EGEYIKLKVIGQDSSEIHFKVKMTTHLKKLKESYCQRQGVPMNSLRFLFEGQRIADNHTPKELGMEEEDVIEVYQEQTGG
Method: hSUMO-1 18-97 was expressed and purified as previously described from a pet19b His-TEV-SUMO-1 (18-97) construct with cleavage of the tag using TEV protease.4 […]
(§1) Fluorescence anisotropy assays were performed in 384-well plates (Greiner Bio-one). Each experiment was run in triplicate and the fluorescence anisotropy measured using a Perkin Elmer EnVisionTM 2103 MultiLabel plate reader, with excitation at 480 nm (30 nm bandwidth), polarised dichroic mirror at 505 nm and emission at 535 nm (40 nm bandwidth, S and P polarised). All assays were performed in 20 mM Tris, 100 mM NaCl, 0.1 mM DTT, pH 7.5 unless otherwise stated and data analysed following previously published methods.
(§2) Fluorescence anisotropy data was processed as described previously.[2] Briefly. the data from both the P (perpendicular intensity) and S (parallel intensity) channels, resulting from this measurement and corrected by subtracting the corresponding control wells, were used to calculate the intensity and anisotropy for each well following Equations 1 and 2: […]
(§3) For direct titration the average anisotropy (across three experimental replicates) and the standard deviation of these values were then calculated and fit to a logistic model using OriginPro 9.0 to determine the maximum and minimum anisotropies then the fraction bound calculated (Equation 3) and used to determine Kd (equation 4)
(§4) Lb= (r‒rmin)/λ(rmax‒r)+r‒rmin Equation 3
(§5) y= {(k+ x+[ FL])‒√{k+x+[FL] 2‒4x[FL]}}/2 Equation 4 r = anisotropy, I = total intensity, P = perpendicular intensity, S = parallel intensity, G = instrument factor which was set to 1 for all experiments, Lb = fraction ligand bound, λ = […]
(§6) For competition experiments, the anisotropies were determined as for the direct titration and then plotted against inhibitor concentration and fit (equation 5) to determine the IC50 and error […]
(§7) y = rmax + (rmin-rmax)/(1+(x/xo)p) Equation 5
(§8) Where xo represents the IC50 […]
(§9) Competition binding assays:
(§10) FA competition assays were performed in 384 well plates with the concentration of variant […]
(§11) with fixed protein and tracer concentrations. FITC-labelled peptide was added to each well to […]
(§12) For control wells, the tracer peptide was replaced with an identical volume of assay buffer.
(§13) The total volume in each well was 60 μL. […]

MCL-1 = target: T2, MCL-1 (Homo sapiens, UniProt Q07820); test: Isothermal calorimetry (ITC) of peptide binding to MCL-1; details: 50 mM Tris, 150 mM NaCl, pH 7.5, 150 μM peptide; for Kd: 25°C, one-binding site model
T2 construct: 172-327 was expressed; His-SUMO (N, cleaved yes); made in house
T2 sequence (Q07820 172-327): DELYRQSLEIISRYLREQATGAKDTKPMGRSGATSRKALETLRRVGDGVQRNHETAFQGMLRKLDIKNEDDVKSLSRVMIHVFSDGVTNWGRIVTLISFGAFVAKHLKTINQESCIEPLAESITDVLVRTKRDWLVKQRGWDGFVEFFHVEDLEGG
Method: Peptide variants were prepared as N-terminal acetamides and C-terminal amides (see ESI ^†). […] Lastly, structural effects of these variations were investigated using circular dichroism (CD) spectroscopy (Fig. S4, ESI ^†).
(b) ITC data (50 mM Tris, 150 mM NaCl, pH 7.5, 150 μM peptide). […]
ITC experiments were carried out using a Microcal ITC200i instrument (Malvern) at 25°C in […]
[…] The protein of interest was dialysed against the buffer prior to experiment, and lyophilized peptides were dissolved in the same buffer. Protein was present in the cell and titrated with peptide solutions loaded into the syringe using 20 x 2 uL injections with 120 s spacing between the injections. Heats of peptide dilution were subtracted from each measurement raw data. Data was analysed using Microcal Origin 8 and

hMCL-1 172-327 = target: T3, hMCL-1 172-327 (Homo sapiens, UniProt Q07820); test: Fluorescence anisotropy competition assay, FITC-Ahx-BIM75–85 tracer / MCL-1; assay type: binding; details: for inhibitory activity in competition FA: competition FA vs FITC-Ahx-BIM75–85/MCL-1, relative to NOXA75–93
T3 construct: 172-327 was expressed; His-SUMO (N, cleaved yes); made in house
T3 sequence (Q07820 172-327): as above
Method: as §1, §2, §3, §4, §5, §6, §7, §8, §9, §10, §11, §12, §13

α-chymotrypsin = test: Proteolysis by α-chymotrypsin; assay type: in vitro ADME, bovine; details: 45 μM peptide, 0.25 μg/ml α-chymotrypsin, 25 °C, 50 mM Tris-HCl pH 8.0, 150 mM NaCl, 10 mM CaCl2; LC-MS EIC of full-length peptide; triplicate
Source text: An advantage of PreSaVS lies in the ability to identify tolerated variants – in terms of target binding affinity – with more desirable physicochemical properties (Table S3 for calculated physicochemical properties, ESI ^†). […] This may arise from subtle changes in protease recognition specificity, although given proteases recognise substrates in an extended, β-like conformation as is the case for the SIM2705–2717/SUMO interaction, secondary structure propensity may also play a role.
Figure S7. Proteolysis data for (a) NOXA75-93 (45 μM peptide in the presence of 0.25 μg/ml α-chymotrypsin at 25 °C) and (b) SIM2705-2717 (40 μM peptide in the presence of 0.75 μg/mL Proteinase K at 25 °C). Data points show the mean ± standard deviation over triplicate measurements. Insets show t1/2 values.
as §8
diluted over 16-24 points using 2-fold dilutions. […]
of assay buffer. Plates were read after 45 minutes. […]
The total volume in each well was 60 μL. Plates were read after 45 minutes of incubation at […]
uL injections with 120 s spacing between the injections. […] Data was analysed using Microcal Origin 8 and fitted to a one-binding site model […]
Peptide solubility was assessed using a qualitative test.
= 5690 M-1cm-1), concentrations were determined based on the absorbance at 280 nm. For NOXA variants, concentrations were determined based on absorbance at 205 nm (ε 205 = […]

| Compound | IC50 (hSUMO-1 18-97) | ΔG (MCL-1) [kcal/mol] | ΔH (MCL-1) [kcal/mol] | IC50 (hMCL-1 172-327) [µM] | inhibitory activity in competition FA (hMCL-1 172-327) | Kd (MCL-1) [µM] | further results |
| --- | --- | --- | --- | --- | --- | --- | --- |
| CC[C@H](C)[C@H](NC(=O)[C@H](CCCNC(=N)N)NC(=O)[C@H](CCCNC(=N)N)NC(=O)[C@H](CC(C)C)NC(=O)[C@H](CCC(N)=O)NC(=O)[C@H](C)NC(=O)[C@H](C)NC(C)=O)C(=O)NCC(=O)N[C@@H](CC(=O)O)C(=O)N[C@@H](CCCCN)C(=O)N[C@H](C(=O)N[C@@H](CC(N)=O)C(=O)N[C@@H](CC(C)C)C(=O)N[C@@H](CCCNC(=N)N)C(=O)N[C@@H](CCC(N)=O)C(=O)N[C@@H](CCCCN)C(=O)N[C@@H](CC(C)C)C(=O)N[C@@H](CC(C)C)C(=O)N[C@@H](CC(N)=O)C(N)=O)C(C)C [NOXA75–93] |  | -2.08 | -4.59 ± 0.359 |  |  |  |  |
| Ac-AAQLRRIGDKFNLRQKLLN-NH2 [NOXA75–93V85F] |  | -2 | -3.66 ± 0.813 | > 20 | weaker inhibitory activity | 0.8 ± 0.1 | −TΔS (MCL-1): 1.65 kcal/mol |
| Ac-AAQWRRIGDKVNLRQKLLN-NH2 [NOXA75–93L78W] |  | -1.83 | -3.13 ± 0.932 | 2.2 ± 0.1 | tolerated | 2.4 ± 0.8 | −TΔS (MCL-1): 1.31 kcal/mol |
| Ac-AAQFRRIGDKVNLRQKLLN-NH2 [NOXA75–93L78F] |  |  |  | 2.7 ± 0.1 |  | 1.7 ± 0.1 | increased rate of cleavage by α-chymotrypsin relative to NOXA75–93 (α-chymotrypsin): ≈ 10 fold |
| Ac-AAQYRRIGDKVNLRQKLLN-NH2 [NOXA75–93L78Y] |  |  |  | > 100 | poor inhibitor |  | increased rate of cleavage by α-chymotrypsin relative to NOXA75–93 (α-chymotrypsin): ≈ 10 fold |

Second part, led by results:

| IC50 (hSUMO-1 18-97) | ΔG (MCL-1) [kcal/mol] | ΔH (MCL-1) [kcal/mol] | IC50 (hMCL-1 172-327) [µM] | inhibitory activity in competition FA (hMCL-1 172-327) | Kd (MCL-1) [µM] | Compound | further results |
| --- | --- | --- | --- | --- | --- | --- | --- |
| > 200 µM |  |  |  |  |  | CC[C@H](C)[C@H](NC(=O)[C@H](CCC(=O)O)NC(=O)[C@H](CC(N)=O)NC(=O)[C@H](CC(=O)O)NC(C)=O)C(=O)N[C@@H](CCC(=O)O)C(=O)N[C@H](C(=O)N[C@@H](CCC(=O)O)C(=O)N[C@H](C(=O)N[C@H](C(=O)N[C@@H](Cc1c[nH]c2ccccc12)C(=O)N[C@@H](CCC(=O)O)C(=O)N[C@@H](CCCCN)C(=O)N[C@@H](CCCCN)C(N)=O)C(C)C)[C@@H](C)CC)C(C)C [SIM2705–2717I2711E] | inhibitory potency in competition FA (hSUMO-1 18-97): lost inhibitory potency |
| > 200 µM |  |  |  |  |  | CC[C@H](C)[C@H](NC(=O)[C@H](CCC(=O)O)NC(=O)[C@H](CC(N)=O)NC(=O)[C@H](CC(=O)O)NC(C)=O)C(=O)N[C@@H](CCC(=O)O)C(=O)N[C@H](C(=O)N[C@H](C(=O)N[C@H](C(=O)N[C@@H](CCC(=O)O)C(=O)N[C@@H](Cc1c[nH]c2ccccc12)C(=O)N[C@@H](CCC(=O)O)C(=O)N[C@@H](CCCCN)C(=O)N[C@@H](CCCCN)C(N)=O)[C@@H](C)CC)[C@@H](C)CC)C(C)C [SIM2705–2717V2713E] | inhibitory potency in competition FA (hSUMO-1 18-97): lost inhibitory potency |
| 16.2 µM and 16.1 µM |  |  |  |  |  | CC[C@H](C)[C@H](NC(=O)[C@H](CCC(=O)O)NC(=O)[C@H](CC(N)=O)NC(=O)[C@H](CC(=O)O)NC(C)=O)C(=O)N[C@@H](CCC(=O)O)C(=O)N[C@H](C(=O)N[C@H](C(=O)N[C@H](C(=O)N[C@H](C(=O)N[C@@H](Cc1c[nH]c2ccccc12)C(=O)N[C@@H](CCC(=O)O)C(=O)N[C@@H](CCCCN)C(=O)N[C@@H](CCCCN)C(N)=O)C(C)C)[C@@H](C)CC)[C@@H](C)CC)[C@@H](C)CC [SIM2705–2717V2710I] |  |

— PMC8495968, “Towards optimizing peptide-based inhibitors of protein–protein interactions: predictive saturation variation scanning (PreSaVS)” (RSC Chemical Biology, 2021)
